BigSolDB 2.1

SMILES: CSc1nc2cc(Oc3cccc(Cl)c3Cl)c(Cl)cc2[nH]1
- solubility (mole fraction) (in 1,2-dichloroethane, 278.15 K): 0.00153
- solubility (mole fraction) (in 1,2-dichloroethane, 283.15 K): 0.00187
- solubility (mole fraction) (in 1,2-dichloroethane, 288.15 K): 0.00234
- solubility (mole fraction) (in 1,2-dichloroethane, 293.15 K): 0.00289
- solubility (mole fraction) (in 1,2-dichloroethane, 298.15 K): 0.00365
- solubility (mole fraction) (in 1,2-dichloroethane, 303.15 K): 0.00429
- solubility (mole fraction) (in 1,2-dichloroethane, 308.15 K): 0.00522
- solubility (mole fraction) (in 1,2-dichloroethane, 313.15 K): 0.0063
- solubility (mole fraction) (in 1,2-dichloroethane, 318.15 K): 0.00759
- solubility (mole fraction) (in acetonitrile, 278.15 K): 0.000629
- solubility (mole fraction) (in acetonitrile, 283.15 K): 0.000811
- solubility (mole fraction) (in acetonitrile, 288.15 K): 0.00106
- solubility (mole fraction) (in acetonitrile, 293.15 K): 0.00136
- solubility (mole fraction) (in acetonitrile, 298.15 K): 0.00164
- solubility (mole fraction) (in acetonitrile, 303.15 K): 0.00213
- solubility (mole fraction) (in acetonitrile, 308.15 K): 0.00264
- solubility (mole fraction) (in acetonitrile, 313.15 K): 0.0032
- solubility (mole fraction) (in acetonitrile, 318.15 K): 0.00396
- solubility (mole fraction) (in ethanol, 278.15 K): 0.00727
- solubility (mole fraction) (in ethanol, 283.15 K): 0.00878
- solubility (mole fraction) (in ethanol, 288.15 K): 0.0105
- solubility (mole fraction) (in ethanol, 293.15 K): 0.0126
- solubility (mole fraction) (in ethanol, 298.15 K): 0.0151
- solubility (mole fraction) (in ethanol, 303.15 K): 0.0181
- solubility (mole fraction) (in ethanol, 308.15 K): 0.0209
- solubility (mole fraction) (in ethanol, 313.15 K): 0.0244
- solubility (mole fraction) (in ethanol, 318.15 K): 0.0288
- solubility (mole fraction) (in ethyl acetate, 278.15 K): 0.0106
- solubility (mole fraction) (in ethyl acetate, 283.15 K): 0.0125
- solubility (mole fraction) (in ethyl acetate, 288.15 K): 0.0147
- solubility (mole fraction) (in ethyl acetate, 293.15 K): 0.0173
- solubility (mole fraction) (in ethyl acetate, 298.15 K): 0.0198
- solubility (mole fraction) (in ethyl acetate, 303.15 K): 0.0232
- solubility (mole fraction) (in ethyl acetate, 308.15 K): 0.0262
- solubility (mole fraction) (in ethyl acetate, 313.15 K): 0.0306
- solubility (mole fraction) (in ethyl acetate, 318.15 K): 0.0354
- solubility (mole fraction) (in ethyl formate, 278.15 K): 0.00501
- solubility (mole fraction) (in ethyl formate, 283.15 K): 0.00632
- solubility (mole fraction) (in ethyl formate, 288.15 K): 0.00795
- solubility (mole fraction) (in ethyl formate, 293.15 K): 0.00982
- solubility (mole fraction) (in ethyl formate, 298.15 K): 0.0121
- solubility (mole fraction) (in ethyl formate, 303.15 K): 0.0149
- solubility (mole fraction) (in ethyl formate, 308.15 K): 0.0177
- solubility (mole fraction) (in ethyl formate, 313.15 K): 0.0215
- solubility (mole fraction) (in ethyl formate, 318.15 K): 0.0258
- solubility (mole fraction) (in ethylene glycol, 278.15 K): 0.000323
- solubility (mole fraction) (in ethylene glycol, 283.15 K): 0.000439
- solubility (mole fraction) (in ethylene glycol, 288.15 K): 0.00057
- solubility (mole fraction) (in ethylene glycol, 293.15 K): 0.000714
- solubility (mole fraction) (in ethylene glycol, 298.15 K): 0.000934
- solubility (mole fraction) (in ethylene glycol, 303.15 K): 0.0012
- solubility (mole fraction) (in ethylene glycol, 308.15 K): 0.00152
- solubility (mole fraction) (in ethylene glycol, 313.15 K): 0.00188
- solubility (mole fraction) (in ethylene glycol, 318.15 K): 0.00231
- solubility (mole fraction) (in isobutanol, 278.15 K): 0.00455
- solubility (mole fraction) (in isobutanol, 283.15 K): 0.00558
- solubility (mole fraction) (in isobutanol, 288.15 K): 0.00698
- solubility (mole fraction) (in isobutanol, 293.15 K): 0.00859
- solubility (mole fraction) (in isobutanol, 298.15 K): 0.0109
- solubility (mole fraction) (in isobutanol, 303.15 K): 0.0132
- solubility (mole fraction) (in isobutanol, 308.15 K): 0.0161
- solubility (mole fraction) (in isobutanol, 313.15 K): 0.0194
- solubility (mole fraction) (in isobutanol, 318.15 K): 0.023
- solubility (mole fraction) (in isopropanol, 278.15 K): 0.00215
- solubility (mole fraction) (in isopropanol, 283.15 K): 0.00272
- solubility (mole fraction) (in isopropanol, 288.15 K): 0.00337
- solubility (mole fraction) (in isopropanol, 293.15 K): 0.00411
- solubility (mole fraction) (in isopropanol, 298.15 K): 0.00511
- solubility (mole fraction) (in isopropanol, 303.15 K): 0.00619
- solubility (mole fraction) (in isopropanol, 308.15 K): 0.00757
- solubility (mole fraction) (in isopropanol, 313.15 K): 0.00914
- solubility (mole fraction) (in isopropanol, 318.15 K): 0.0112
- solubility (mole fraction) (in methanol, 278.15 K): 0.00373
- solubility (mole fraction) (in methanol, 283.15 K): 0.00458
- solubility (mole fraction) (in methanol, 288.15 K): 0.00565
- solubility (mole fraction) (in methanol, 293.15 K): 0.00691
- solubility (mole fraction) (in methanol, 298.15 K): 0.00841
- solubility (mole fraction) (in methanol, 303.15 K): 0.0101
- solubility (mole fraction) (in methanol, 308.15 K): 0.0121
- solubility (mole fraction) (in methanol, 313.15 K): 0.0144
- solubility (mole fraction) (in methanol, 318.15 K): 0.017
- solubility (mole fraction) (in n-butanol, 278.15 K): 0.0221
- solubility (mole fraction) (in n-butanol, 283.15 K): 0.0246
- solubility (mole fraction) (in n-butanol, 288.15 K): 0.0273
- solubility (mole fraction) (in n-butanol, 293.15 K): 0.0302
- solubility (mole fraction) (in n-butanol, 298.15 K): 0.0333
- solubility (mole fraction) (in n-butanol, 303.15 K): 0.0366
- solubility (mole fraction) (in n-butanol, 308.15 K): 0.0399
- solubility (mole fraction) (in n-butanol, 313.15 K): 0.0435
- solubility (mole fraction) (in n-butanol, 318.15 K): 0.0473
- solubility (mole fraction) (in n-butyl acetate, 278.15 K): 0.0159
- solubility (mole fraction) (in n-butyl acetate, 283.15 K): 0.0181
- solubility (mole fraction) (in n-butyl acetate, 288.15 K): 0.0207
- solubility (mole fraction) (in n-butyl acetate, 293.15 K): 0.0232
- solubility (mole fraction) (in n-butyl acetate, 298.15 K): 0.0263
- solubility (mole fraction) (in n-butyl acetate, 303.15 K): 0.0298
- solubility (mole fraction) (in n-butyl acetate, 308.15 K): 0.0334
- solubility (mole fraction) (in n-butyl acetate, 313.15 K): 0.0372
- solubility (mole fraction) (in n-butyl acetate, 318.15 K): 0.0423
- solubility (mole fraction) (in n-pentyl acetate, 278.15 K): 0.0185
- solubility (mole fraction) (in n-pentyl acetate, 283.15 K): 0.0214
- solubility (mole fraction) (in n-pentyl acetate, 288.15 K): 0.0241
- solubility (mole fraction) (in n-pentyl acetate, 293.15 K): 0.0277
- solubility (mole fraction) (in n-pentyl acetate, 298.15 K): 0.0319
- solubility (mole fraction) (in n-pentyl acetate, 303.15 K): 0.0361
- solubility (mole fraction) (in n-pentyl acetate, 308.15 K): 0.0407
- solubility (mole fraction) (in n-pentyl acetate, 313.15 K): 0.0453
- solubility (mole fraction) (in n-pentyl acetate, 318.15 K): 0.0511
- solubility (mole fraction) (in n-propanol, 278.15 K): 0.00915
- solubility (mole fraction) (in n-propanol, 283.15 K): 0.0108
- solubility (mole fraction) (in n-propanol, 288.15 K): 0.0125
- solubility (mole fraction) (in n-propanol, 293.15 K): 0.0146
- solubility (mole fraction) (in n-propanol, 298.15 K): 0.017
- solubility (mole fraction) (in n-propanol, 303.15 K): 0.0198
- solubility (mole fraction) (in n-propanol, 308.15 K): 0.0229
- solubility (mole fraction) (in n-propanol, 313.15 K): 0.0262
- solubility (mole fraction) (in n-propanol, 318.15 K): 0.0301
- solubility (mole fraction) (in n-propyl acetate, 278.15 K): 0.0124
- solubility (mole fraction) (in n-propyl acetate, 283.15 K): 0.0146
- solubility (mole fraction) (in n-propyl acetate, 288.15 K): 0.017
- solubility (mole fraction) (in n-propyl acetate, 293.15 K): 0.0196
- solubility (mole fraction) (in n-propyl acetate, 298.15 K): 0.0228
- solubility (mole fraction) (in n-propyl acetate, 303.15 K): 0.0258
- solubility (mole fraction) (in n-propyl acetate, 308.15 K): 0.0299
- solubility (mole fraction) (in n-propyl acetate, 313.15 K): 0.0338
- solubility (mole fraction) (in n-propyl acetate, 318.15 K): 0.039
